The numbers were not newly measured in patent publication US6730664B1, “Formulations for parenteral use of estramustine phosphate and sulfoalkyl ether cyclodextrins” (Pharmacia Italia S.p.A., priority 1999, dated 2004), which cites them from elsewhere.

The conditions of this data set: patients, slow intravenous injection or bolus, 300 mg/day.

Consider `C[C@]12CC[C@@H]3c4ccc(OC(=O)N(CCCl)CCCl)cc4CC[C@H]3[C@@H]1CC[C@@H]2OP(=O)(O)O` [estramustine phosphate, Estramustine phosphate], for which the “side effects at the peripheral intravenous injection sites” value was “thrombophlebitis and local irritations”.
